According to patent US20250270513A1, “METHOD FOR PRODUCING CULTURED TISSUE, AND PREPARATION FOR EXTERNAL APPLICATION” (National University Corporation Ehime University, priority 2019, published 2025):

What was measured:
[1] = tested on: EREG, ARG2, CCL2, IL1RN, PGF, SPP1, VEGFA, AREG and DPT mRNA; assay: qPCR of genes in monolayer fibroblasts, 24 hours (Test Example 3-3); assay type: cell-based, human; conditions: group treated with hyaluronic acid oligosaccharides (HA oligo)
Method: In the same manner as in Test Example 3-2, NHDF was cultured in 1% FCS and 1% ABAM-containing DMEM medium containing 0, 30, or 100 mg/mL trehalose or hyaluronic acid oligosaccharide 4mer (HA4) (product code 11006, manufactured by Cosmo Bio Co., Ltd.) for 24 hours, and RNA was recovered from the cells. Also, as a control, RNA was recovered from fibroblasts before treatment (0 h in FIG. 9). The obtained sample was subjected to the same operation as in Test Example 3-2, and qPCR for genes EREG, ARG2, CCL2, IL1RN, PGF, SPP1, VEGFA, AREG and DPT was performed. GAPDH was used as a reference gene.

[2] = tested on: human normal skin keratinocytes on collagen gel containing normal human skin fibroblasts (NHDF); assay: Three-dimensional cultured skin on a sugar-containing dermal cell structure (Test Example 1); assay type: cell-based; conditions: 30 mg/mL sugar added instead of trehalose to collagen gel containing fibroblasts
Method: Subsequently, about 1 mL of the gel obtained was poured into a transwell-collagen coated insert (catalog number: 3492, manufactured by Costar; pore size: 3.0 μm, surface area: 4.67 cm^2), which is a cell culture insert, and allowed to stand in an incubator for 5 minutes or more. 5 mL of DMEM containing 10 v/v % FCS and 1 v/v % ABAM (Antibiotics-Antimycotic solution, 100×, manufactured by ThermoFisher Scientific Inc.) in which normal human skin fibroblasts (NHDF, manufactured by Cambrex Corporation) were suspended at a cell density of 5×10^5 cells/mL was added to 29 mL of the gel solution I. About 3.5 mL of a gel solution containing the cells was added to the cell culture insert, and the mixture was allowed to stand in a 37° C. incubator for 30 minutes to gel.
• (2) Next, the collagen gel (layered dermal cell structure) containing NHDF was pre-cultured for 5 days using a DMEM medium containing 50 μg/ml ascorbic acid, 10 v/v % FCS, and 1 v/v % ABAM. Next, human normal skin keratinocytes suspended in MCDB medium were seeded on the collagen gel surface so as to be 1.28×10^5 cells/cm^2, and a medium obtained by mixing equal amounts of MCDB Type-II medium (Growth Medium 2 in JP-B2-3066624) and EGM was added to an external liquid of the cell culture insert and the inside of the insert, followed by culturing at 37° C. for 2 days.
• (3) The medium was replaced with a cornification medium (CM medium), and the cell culture insert was placed such that a porous membrane of the cell culture insert was located at a gas-liquid interface of the cornification medium. In this state, the cells were subjected to gas-liquid interface culture at 37° C. for 7 to 14 days to induce differentiation, thereby obtaining three-dimensional cultured skin. The medium was replaced every two days from the start of the culture.

## hyaluronic acid oligosaccharide 4mer [hyaluronic acid oligosaccharides, reference compound]
[1]
  increase in mRNA expression level of genes EREG, ARG2, CCL2, IL1RN, PGF, SPP1, VEGFA, AREG and DPT: not observed

## O=C(CO)[C@@H](O)[C@H](O)[C@H](O)CO [fructose, reference compound]
[2]
  formation of epithelial tissue layer: no epithelial tissue layer was formed

## OC[C@H]1O[C@@](CO)(O[C@H]2O[C@H](CO)[C@@H](O)[C@H](O)[C@H]2O)[C@@H](O)[C@@H]1O [sucrose, reference compound]
[2]
  formation of epithelial tissue layer: no epithelial tissue layer was formed
